The source made the active and inactive calls. The rule behind the calls is not given here.

The nature of assay [1]: Cytotoxicity against human H357 cells assessed as reduction in cell viability incubated for 48 hrs by MTT assay. It is filed as functional, cell-based. A general note: Formazan colour is commonly taken as a measure of viable cells.
For the next assay, the system named is HEK-293T. The assay can be described thus: Cytotoxicity against human HEK293T cells assessed as reduction in cell viability incubated for 48 hrs by MTT assay. It is filed as cell-based.
A further assay has as its system MDA-MB-231. The assay can be described thus: Cytotoxicity against human MDA-MB-231 cells assessed as reduction in cell viability incubated for 48 hrs by MTT assay. The class given is functional, cell-based.
The test system of a further assay is MCF7. In words: Cytotoxicity against human MCF7 cells assessed as reduction in cell viability incubated for 48 hrs by MTT assay. The class given is functional, cell-based.
Assay [2] deals with DNA topoisomerase 2-alpha (Homo sapiens) (UniProt P11388). The assay can be described thus: Inhibition of human topoisomerase 2alpha assessed as reduction in decatenation of kinetoplast DNA by agarose gel electrophoresis method.
DNA topoisomerase 2-alpha (Homo sapiens), sequence (P11388 whole entry): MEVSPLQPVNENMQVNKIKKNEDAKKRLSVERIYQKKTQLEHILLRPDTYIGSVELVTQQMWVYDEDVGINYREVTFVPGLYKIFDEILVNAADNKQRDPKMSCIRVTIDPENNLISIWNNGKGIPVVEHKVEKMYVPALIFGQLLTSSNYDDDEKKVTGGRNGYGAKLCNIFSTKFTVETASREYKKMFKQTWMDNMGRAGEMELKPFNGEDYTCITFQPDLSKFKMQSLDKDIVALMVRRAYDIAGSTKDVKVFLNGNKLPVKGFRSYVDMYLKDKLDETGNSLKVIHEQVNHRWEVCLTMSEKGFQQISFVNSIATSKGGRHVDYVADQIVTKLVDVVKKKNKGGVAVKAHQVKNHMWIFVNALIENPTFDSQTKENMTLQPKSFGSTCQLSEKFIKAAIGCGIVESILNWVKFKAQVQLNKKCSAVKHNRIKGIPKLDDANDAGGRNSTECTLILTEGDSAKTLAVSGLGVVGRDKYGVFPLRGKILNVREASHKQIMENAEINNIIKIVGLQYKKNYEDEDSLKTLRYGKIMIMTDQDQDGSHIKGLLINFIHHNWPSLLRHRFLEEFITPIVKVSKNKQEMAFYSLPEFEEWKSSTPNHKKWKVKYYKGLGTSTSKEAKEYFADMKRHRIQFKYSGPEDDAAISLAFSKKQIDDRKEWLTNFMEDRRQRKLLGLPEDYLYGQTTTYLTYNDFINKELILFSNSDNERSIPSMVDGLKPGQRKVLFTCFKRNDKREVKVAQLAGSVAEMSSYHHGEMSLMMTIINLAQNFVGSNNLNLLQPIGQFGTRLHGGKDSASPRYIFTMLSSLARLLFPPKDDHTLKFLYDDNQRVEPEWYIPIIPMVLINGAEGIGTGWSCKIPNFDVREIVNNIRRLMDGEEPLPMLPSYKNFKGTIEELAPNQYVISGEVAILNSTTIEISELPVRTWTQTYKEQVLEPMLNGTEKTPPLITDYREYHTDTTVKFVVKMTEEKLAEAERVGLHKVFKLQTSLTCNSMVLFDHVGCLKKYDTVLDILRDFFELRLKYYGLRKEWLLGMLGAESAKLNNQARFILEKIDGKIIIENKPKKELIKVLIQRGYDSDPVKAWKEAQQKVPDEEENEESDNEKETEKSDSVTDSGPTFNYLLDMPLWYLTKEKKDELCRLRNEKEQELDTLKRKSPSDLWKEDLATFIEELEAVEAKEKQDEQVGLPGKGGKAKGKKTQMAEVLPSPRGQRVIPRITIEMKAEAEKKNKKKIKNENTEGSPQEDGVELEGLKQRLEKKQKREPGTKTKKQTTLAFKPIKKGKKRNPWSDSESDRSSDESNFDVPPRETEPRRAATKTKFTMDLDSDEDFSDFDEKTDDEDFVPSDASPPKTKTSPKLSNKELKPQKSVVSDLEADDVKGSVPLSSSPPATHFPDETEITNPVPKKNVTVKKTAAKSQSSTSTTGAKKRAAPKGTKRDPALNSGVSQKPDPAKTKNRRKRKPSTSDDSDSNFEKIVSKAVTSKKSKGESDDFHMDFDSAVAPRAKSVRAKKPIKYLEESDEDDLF
Setting [3] is: Homo sapiens, H357, 48 h, read-out: IC50.
Setting [4] is: Homo sapiens, MDA-MB-231, 48 h, read-out: IC50.
Setting [5] is: Homo sapiens, MCF7, 48 h, read-out: IC50.

With `COc1cc(NC2=CC(=O)c3ccccc3C2=O)cc(OC)c1OC`, the half-inhibitory concentration (IC50) was found to be 6.8 µM in assay [1] (setting [3]), 8.4 µM in the assay with HEK-293T, 6.9 µM in the assay with MDA-MB-231 (setting [4]) and 7 µM with MCF7 (setting [5]).

Take `COc1ccc2c3c([nH]c2c1)C(=O)c1ccccc1C3=O`: the IC50 in assay [1] (setting [3]) came to 7.9 µM; with HEK-293T it was 9.8 µM; in the assay on MDA-MB-231 (setting [4]), 7.5 µM; in the assay on MCF7 (setting [5]) it was 7 µM.

For the compound `O=C1C=C(Nc2cccc(Cl)c2)C(=O)c2ccccc21`, the IC50 in assay [1] (setting [3]) is 4 µM; with HEK-293T, 5.2 µM; with MDA-MB-231 (setting [4]) it was 4.1 µM; with MCF7 (setting [5]), 4.2 µM.

For `O=C1C=C(Nc2nccs2)C(=O)c2ccccc21`, the IC50 in assay [1] (setting [3]) was found to be 7.2 µM; with HEK-293T, 7.6 µM; with MDA-MB-231 (setting [4]), 6.3 µM; in the assay with MCF7 (setting [5]), 6.4 µM.

`O=C1c2ccccc2C(=O)c2c1[nH]c1ccc(Cl)cc21`: the inhibition result in assay [2] was “Active”. Also, the IC50 in assay [1] (setting [3]) was 4.6 µM; in the assay on HEK-293T it was 6.3 µM; in the assay on MDA-MB-231 (setting [4]), 4.4 µM; with MCF7 (setting [5]) it was 4.5 µM.

On to `O=C1C(Nc2ccccc2)=CC(=O)c2c(O)cccc21`, for which the IC50 in assay [1] (setting [3]) was determined as 4.9 µM; with HEK-293T, 4.2 µM; in the assay on MDA-MB-231 (setting [4]) it was 3.7 µM; with MCF7 (setting [5]) it was 3.8 µM.

For the compound `COc1cc2[nH]c3c(c2cc1OC)C(=O)c1ccccc1C3=O`, the 50% inhibitory concentration (IC50) in assay [1] (setting [3]) was 8.7 µM; with HEK-293T, 10.2 µM; with MDA-MB-231 (setting [4]) it was 7.4 µM; with MCF7 (setting [5]) it was 8.4 µM.

Turning to `Cc1ccc(NC2=CC(=O)c3ccccc3C2=O)cc1C`, the IC50 in assay [1] (setting [3]) was determined as 6.4 µM; with HEK-293T, 7.7 µM; with MDA-MB-231 (setting [4]), 5.9 µM; in the assay on MCF7 (setting [5]) it was 5.3 µM.

For `CCC(C)c1ccc2[nH]c3c(c2c1)C(=O)c1ccccc1C3=O` (stereo unspecified), the inhibition entry in assay [2] is “Active”. For the same compound, the IC50 in assay [1] (setting [3]) amounted to 7.1 µM; in the assay with HEK-293T, 9 µM; with MDA-MB-231 (setting [4]), 5.4 µM; in the assay with MCF7 (setting [5]) it was 6.3 µM.

For `Cc1ccc(NC2=CC(=O)c3ccccc3C2=O)cc1`, in assay [2], the inhibition result is “Active”. The IC50 in assay [1] (setting [3]) was 5.2 µM; with HEK-293T it was 5.6 µM; in the assay on MDA-MB-231 (setting [4]), 5.3 µM; with MCF7 (setting [5]) it was 6.4 µM.

Consider `O=C1c2ccccc2C(=O)c2c1[nH]c1cc(F)c(F)cc21`, for which the IC50 entry (in assay [1] (h357); in the assay with MDA-MB-231 (mda-mb-231); in the assay on MCF7 (mcf7)) was “Not Active” each time.

With `Cc1ccc2[nH]c3c(c2c1)C(=O)c1ccccc1C3=O`, in assay [2], the inhibition result was “Active”. Also, the IC50 in assay [1] (setting [3]) is 6.1 µM; in the assay with HEK-293T, 8 µM; with MDA-MB-231 (setting [4]) it was 4.9 µM; with MCF7 (setting [5]), 5.2 µM.

For `O=C1C=C(Nc2cnccn2)C(=O)c2ccccc21`, the IC50 in assay [1] (setting [3]) was found to be 8.1 µM; with HEK-293T, 9 µM; with MDA-MB-231 (setting [4]) it was 7 µM; with MCF7 (setting [5]) it was 7.2 µM.

`O=C1c2ccccc2C(=O)c2c1[nH]c1ccc(F)cc21`: the inhibition result in assay [2] was “Active”. The IC50 turned out to be 5.6 µM in assay [1] (setting [3]), 7.5 µM in the assay with HEK-293T, 4.8 µM in the assay on MDA-MB-231 (setting [4]) and 4.7 µM in the assay on MCF7 (setting [5]).

Consider `O=C1C=C(Nc2ccccc2)C(=O)c2ccccc21`, for which the IC50 stood at 4.2 µM in assay [1] (setting [3]), 5.6 µM in the assay on HEK-293T, 5.3 µM with MDA-MB-231 (setting [4]) and 4.4 µM with MCF7 (setting [5]).

Turning to `COc1cc2[nH]c3c(c2c(OC)c1OC)C(=O)c1c(O)cccc1C3=O`, the IC50 result (in assay [1] (h357); with MDA-MB-231 (mda-mb-231); in the assay with MCF7 (mcf7)) was “Not Active” in each case.

Take `O=C1C=C(Nc2ccc(F)c(F)c2)C(=O)c2ccccc21`: the IC50 in assay [1] (setting [3]) was determined as 8.4 µM; in the assay on HEK-293T, 9.4 µM; in the assay on MDA-MB-231 (setting [4]) it was 7 µM; in the assay on MCF7 (setting [5]), 7.2 µM.

Take `COc1cccc2c1C(=O)C=C(Nc1ccccc1)C2=O`: the half-maximal inhibitory concentration (IC50) stood at 6.4 µM in assay [1] (setting [3]), 7.7 µM with HEK-293T, 6.2 µM with MDA-MB-231 (setting [4]) and 6 µM with MCF7 (setting [5]).

With `O=C1C=C(NCCCO)C(=O)c2ccccc21`, the IC50 turned out to be 9.9 µM in assay [1] (setting [3]), 10.3 µM with HEK-293T, 9.8 µM with MDA-MB-231 (setting [4]) and 9.6 µM with MCF7 (setting [5]).

`COc1ccc(NC2=CC(=O)c3ccccc3C2=O)cc1`: the 50% inhibitory concentration (IC50) in assay [1] (setting [3]) came out at 4.6 µM; in the assay with HEK-293T, 5.5 µM; in the assay on MDA-MB-231 (setting [4]), 4.8 µM; in the assay with MCF7 (setting [5]), 4.5 µM.

`O=C1C=C(Nc2ccc(Cl)cc2)C(=O)c2ccccc21`: the IC50 worked out at 4.8 µM in assay [1] (setting [3]), 4.9 µM in the assay on HEK-293T, 3.9 µM in the assay on MDA-MB-231 (setting [4]) and 4.1 µM in the assay with MCF7 (setting [5]).

Consider `O=C1C=C(NCCCN2CCOCC2)C(=O)c2ccccc21`, for which the IC50 in assay [1] (setting [3]) worked out at 6.9 µM; with HEK-293T it was 7.2 µM; in the assay with MDA-MB-231 (setting [4]) it was 6.4 µM; in the assay with MCF7 (setting [5]), 6.2 µM.

`COc1cc(NC2=CC(=O)c3c(O)cccc3C2=O)cc(OC)c1OC`: the IC50 result (in assay [1] (h357); in the assay on MDA-MB-231 (mda-mb-231); in the assay on MCF7 (mcf7)) was “Not Active” throughout.

As for `O=C1C=C(Nc2ccc(F)cc2)C(=O)c2ccccc21`, the IC50 in assay [1] (setting [3]) is 3.8 µM; with HEK-293T, 5.2 µM; with MDA-MB-231 (setting [4]), 4.9 µM; with MCF7 (setting [5]), 4.1 µM.

As for `Cc1cc2[nH]c3c(c2cc1C)C(=O)c1ccccc1C3=O`, the concentration for half-maximal inhibition (IC50) in assay [1] (setting [3]) was 6.1 µM; in the assay with HEK-293T, 7 µM; in the assay with MDA-MB-231 (setting [4]) it was 6.3 µM; with MCF7 (setting [5]) it was 4.2 µM.

On to `COc1ccc2[nH]c3c(c2c1)C(=O)c1ccccc1C3=O`, for which the IC50 came out at 9.6 µM in assay [1] (setting [3]), 10.5 µM in the assay on HEK-293T, 8.7 µM in the assay on MDA-MB-231 (setting [4]) and 8 µM with MCF7 (setting [5]).

With `COc1cccc2c1C(=O)c1c([nH]c3ccccc13)C2=O`, the IC50 in assay [1] (setting [3]) is 10.5 µM; in the assay on HEK-293T it was 10.4 µM; with MDA-MB-231 (setting [4]) it was 8.9 µM; in the assay on MCF7 (setting [5]) it was 9.8 µM.

Regarding `O=C1C=C(Nc2ccc3c(c2)OCO3)C(=O)c2ccccc21`, the IC50 amounted to 10.4 µM in assay [1] (setting [3]), 10.2 µM in the assay on HEK-293T, 9.4 µM in the assay with MDA-MB-231 (setting [4]) and 9.6 µM in the assay on MCF7 (setting [5]).

Take `CCC(C)c1ccc(NC2=CC(=O)c3ccccc3C2=O)cc1` (stereo unspecified): the IC50 is 4 µM in assay [1] (setting [3]), 5.2 µM in the assay on HEK-293T, 4.2 µM in the assay with MDA-MB-231 (setting [4]) and 4.2 µM in the assay on MCF7 (setting [5]).

As for `COc1cc2[nH]c3c(c2c(OC)c1OC)C(=O)c1c(OC)cccc1C3=O`, the IC50 result (in assay [1] (h357); in the assay with MDA-MB-231 (mda-mb-231); in the assay on MCF7 (mcf7)) was “Not Active” throughout.

As to `COc1cc(NC2=CC(=O)c3c(OC)cccc3C2=O)cc(OC)c1OC`, the IC50 entry (in assay [1] (h357); with MDA-MB-231 (mda-mb-231); in the assay with MCF7 (mcf7)) was “Not Active” in each case.

Regarding `CN1CCN(CCCNC2=CC(=O)c3ccccc3C2=O)CC1`, the 50% inhibitory concentration (IC50) is 10.9 µM in assay [1] (setting [3]), 10.9 µM in the assay on HEK-293T, 10 µM with MDA-MB-231 (setting [4]) and 10.4 µM in the assay with MCF7 (setting [5]).

As for `CN(C)CCCNC1=CC(=O)c2ccccc2C1=O`, the IC50 in assay [1] (setting [3]) was 7.3 µM; in the assay with HEK-293T it was 8.1 µM; with MDA-MB-231 (setting [4]) it was 6.4 µM; in the assay with MCF7 (setting [5]) it was 6.3 µM.

With `O=C1c2ccccc2C(=O)c2c1[nH]c1ccccc21` [BENZOCARBAZOLEDIONE], the IC50 in assay [1] (setting [3]) came out at 5 µM; with HEK-293T, 5.8 µM; in the assay on MDA-MB-231 (setting [4]), 5.2 µM; with MCF7 (setting [5]), 4.5 µM.

Broadly, the IC50 is the concentration that inhibits the measured activity by half.
